Assay results published in patent US11801232B2, “Targeting of ARID1A-deficient cancers by inhibiting de novo pyrimidine synthesis pathway” (YALE UNIVERSITY, priority 2019, dated 2023).

Legend:
γ-H2AX = experiment: Immunoblot and immunofluorescence of γ-H2AX in ES2 cells; format: cell-based, human; conditions: ARID1A-knockdown ES2 cells; teriflunomide 15 μM, AZD6738 1.5 μM, VX-970 0.075 μM; 24-72 h
Procedure: Immunoblot Analysis and Co-Immunoprecipitation Assay. For immunoblotting experiments, cells were lysed in BC200 lysis buffer [20 mM Tris-HCl (pH 7.5), 200 mM NaCl, 1 mM EDTA, 0.2% Nonidet P-40 (NP-40), freshly added complete protease inhibitor cocktail (from Roche), and PhosSTOP phosphatase inhibitor (from Roche)] or in boiling SDS lysis buffer [1% SDS and 10 mM Tris-CI (pH 7.5)], as previously described^21. Protein concentrations were quantified using a modified Lowry assay, and equal protein amounts were loaded onto a 10% SDS-PAGE gel and separated by gel electrophoresis, followed by transfer to a nitrocellulose membrane. The nitrocellulose membrane was stained with Ponceau S to confirm equal protein loading and then blocked in 2% BSA in Tris-buffered saline with 0.1% Tween-20 (tris buffered saline with tween, or TBST). Primary antibody incubation was done for 2 h at room temperature or, for phospho-specific antibodies, overnight at 4° C. An HRP-conjugated secondary antibody was used, followed by detection using enhanced chemiluminescence substrate (from Pierce). Autoradiograph images were scanned and saved as unmodified TIFF images, and densitometry analysis was done with ImageJ (from NIH) software.
Immunofluorescence. […] Images of cells were acquired using a BZ-X710 fluorescence microscope (from KEYENCE) and analyzed using ImageJ (from NIH).

[1] = test system: ARID1A-knockout HCT116 cells; experiment: Cell growth after 72 h drug treatment, ARID1A-knockout versus wild-type cells; format: cell-based, human; conditions: 72 h treatment; compared to ARID1A wild-type HCT116 control cells
Procedure: Cell Lines. Adherent cell lines were cultured in RPMI 1640 (from Gibco) supplemented with 10% fetal bovine serum (from Gibco) and 1% penicillin-streptomycin (from Gibco) at 37° C., 5% CO2. Low-passage-number cells were used, and all cell lines tested negative for mycoplasma using the MycoAlert Mycoplasma Detection Kit (from Lonza). The following ovarian and endometrial cancer cell lines were used: ES26, KLE5, SKOV3, OVISE (from JCRB Cell Bank), and HEC-1-A5 cells and their stably transfected subclones, as described below. Cell lines were authenticated using the GenePrint10 kit (form Promega) and matching to their original profiles (at ATCC). ARID1A protein expression status was confirmed by immunoblotting. HEK293FT cells were from Thermo Fisher Scientific. ARID1A-knockout HCT116 (homozygous truncating mutations, Q456*/Q456*) and ARID1A-wildtype HCT116 colorectal carcinoma cells were from Horizon Discovery.
(§1) Cytotoxicity assay. Cells were seeded in 96-well plates, with 2000 cells in 100 μL/well, and cultured for 24 h. […] Cell number was determined using a sulforhodamine B (SRB) assay, as previously described^23. […] After washing, protein-bound dye was solubilized with 10 mM unbuffered Tris-base solution (pH 10.5) and detected at 510 nm using a microplate reader. Percentage of cell-growth was calculated using the following formula: % cell growth=[(Absorbance sample)/(Absorbance untreated)]×100 […]

ES2 cells = experiment: Cytotoxicity (SRB) assay with CalcuSyn combination analysis; format: cell-based; conditions: Homo sapiens, ES-2, Table 2; ES2 parental; VX970 alone; read-out: Dm
Procedure: Cytotoxicity assay. Cells were seeded in 96-well plates, with 2000 cells in 100 μL/well, and cultured for 24 h. The cells were treated with serial dilutions of drugs or without drug for an additional 72 h. Cell number was determined using a sulforhodamine B (SRB) assay, as previously described^23. Briefly, cells were fixed with 20% trichloroacetic acid (TCA), air-dried, and stained with 0.4% SRB dissolved in 1% acetic acid. After washing, protein-bound dye was solubilized with 10 mM unbuffered Tris-base solution (pH 10.5) and detected at 510 nm using a microplate reader. Percentage of cell-growth was calculated using the following formula: % cell growth=[(Absorbance sample)/(Absorbance untreated)]×100 […] Datasets from at least three independent experiments were combined, and each table cell contains the mean value±SD. SCR, ES2-shScrambled. N/A, not applicable. Statistical analysis was carried out by one-way ANOVA with Bonferroni's post-hoc test, and differences were considered significant at **P<0.01 and ***P<0.001 as compared to the ES2 parental group with the same drug treatment. […] CIwt value was calculated using the formula: […] Datasets from at least three independent experiments were combined, and each table cell contains the mean value±SD. Teri, teriflunomide. SCR, ES2-shScrambled. N/A, not applicable. Statistical analysis was carried out by one-way ANOVA with Bonferroni's post-hoc test, and differences were considered significant at ***P<0.001 as compared to the ES2 parental group with the same drug treatment.

[2] = test system: ES2-shScrambled (SCR) cells; experiment: as above; format: cell-based; conditions: Homo sapiens, Table 2, VX970 alone, read-out: Dm
Procedure: (§2) Short Hairpin RNA (shRNA)-Mediated Knockdown and Expression of ARID1A in ovarian and endometrial carcinoma cells. shRNA lentiviral supernatants were produced using standard protocols, as previously described^8. Vectors were transfected into HEK293FT cells using X-tremeGENE 9 DNA Transfection Reagent (from Roche). Retroviral supernatants isolated at 48 h were diluted 1:1 in culture medium and used to infect ARID1A-wildtype ES2 and KLE cell lines. Stably transfected subclones were expanded using puromycin (from Dot Scientific) drug selection. For expression of ARID1A in the ARID1A-mutant HEC-1-A cell line, pCIN4-HA-ARID1A was transfected using X-tremeGENE 9 DNA Transfection Reagent (from Roche), followed by selection with G418 (from Gibco). For expression of ARID1A in the ARID1A-mutant SKOV3 and OVISE cell lines, V5/His-tagged pLenti-puro-LacZ and pLenti-puro-ARID1A were transfected using lentivirus. Lentivirus was produced using HEK293FT cells with the second-generation packaging system pSPAX2 (Addgene plasmid) and pMD2.G (Addgene plasmid). Stably transfected subclones were expanded using puromycin and blasticidin (Gibco) drug selection.
(§3) Cytotoxicity assay. Cells were seeded in 96-well plates, with 2000 cells in 100 μL/well, and cultured for 24 h. The cells were treated with serial dilutions of drugs or without drug for an additional 72 h. Cell number was determined using a sulforhodamine B (SRB) assay, as previously described^23. Briefly, cells were fixed with 20% trichloroacetic acid (TCA), air-dried, and stained with 0.4% SRB dissolved in 1% acetic acid. After washing, protein-bound dye was solubilized with 10 mM unbuffered Tris-base solution (pH 10.5) and detected at 510 nm using a microplate reader. Percentage of cell-growth was calculated using the following formula: % cell growth=[(Absorbance sample)/(Absorbance untreated)]×100
(§4) Using CalcuSyn software (Biosoft), dose-effect curves were generated, and drug concentrations corresponding to a 50% decrease in cell number (IC50) were determined.
(§5) Drug concentrations corresponding to a median effect (Dm) are shown for each treatment; teriflunomide concentration is shown for combination (Combo) treatment at a 10:1 fixed molar ratio of two drugs, teriflunomide and AZD6738. […] Datasets from at least three independent experiments were combined, and each table cell contains the mean value±SD. SCR, ES2-shScrambled. N/A, not applicable. Statistical analysis was carried out by one-way ANOVA with Bonferroni's post-hoc test, and differences were considered significant at **P<0.01 and ***P<0.001 as compared to the ES2 parental group with the same drug treatment.
(§6) Drug concentrations (in μM for teriflunomide, in nM for […]) corresponding to median effect (Dm) are shown for each treatment; teriflunomide concentration is shown for combination (Combo) treatment at a 200:1 fixed molar ratio of the two drugs, teriflunomide and VX-970. […] CIwt<0.8, =0.8 to 1.2, and >1.2 indicates synergism, an additive effect, and antagonism, respectively. CIwt value was calculated using the formula: CIwt=(ED50+2ED75+3ED90)/6. Datasets from at least three independent experiments were combined, and each table cell contains the mean value±SD. Teri, teriflunomide. SCR, ES2-shScrambled. N/A, not applicable. Statistical analysis was carried out by one-way ANOVA with Bonferroni's post-hoc test, and differences were considered significant at ***P<0.001 as compared to the ES2 parental group with the same drug treatment.

ES2 shARID1A (a) cells = experiment: as above; format: cell-based; conditions: Homo sapiens, Table 2, VX970 alone, read-out: Dm
Procedure: as §2, §3, §4, §5, §6

ES2 shARID1A (b) cells = experiment: as above; format: cell-based; conditions: Homo sapiens, Table 2, VX970 alone, read-out: Dm
Procedure: as §2, §3, §4, §5, §6

[3] = test system: ES2 ARID1A-knockdown cells (shARID1A); experiment: Cell growth after 72 h drug treatment, ARID1A-knockdown versus control cells; format: cell-based, human; conditions: 72 h treatment; compared to untransfected or shCon ES2 cells
Procedure: as §2, with “Lentivirus was produced using HEK293FT cells with the second-generation packaging system pSPAX2 (Addgene plasmid) and pMD2.G (Addgene plasmid). Stably transfected subclones were expanded using puromycin and blasticidin (Gibco) drug selection.” left out
as §1, with “assay.” for “assay. Cells were seeded in 96-well plates, with 2000 cells in 100 μL/well, and cultured for 24 h.”

SMILES | γ-H2AX protein levels (γ-H2AX) | Drug sensitivity of ARID1A-knockout HCT116 cells [1] | IC50 (ES2 cells) [nM] | IC50 [2] [nM] | IC50 (ES2 shARID1A (a) cells) [nM] | IC50 (ES2 shARID1A (b) cells) [nM] | Drug sensitivity of ARID1A-knockdown ES2 cells [3]
CNCc1ccc(-c2cc(-c3nc(-c4ccc(S(=O)(=O)C(C)C)cc4)cnc3N)on2)cc1 [VX-970] | increased | more sensitive | 165 ± 3.84 | 170 ± 9.24 | 54.3 ± 1.31 | 63.3 ± 10.4 | –
CCc1cncnc1N1CCN(Cc2nc3ccc(C(F)(F)F)cc3[nH]2)CC1 [PF-4708671] | – | – | – | – | – | – | significantly hypersensitive
